In US12559495B2 (Agency for Science, Technology and Research, priority 2013, dated 2026):

These compounds were tested on HEK293-STF3A cells (assay: STF3A assay (luciferase reporter)). Settings: Homo sapiens, 24 h, 1 day of treatment.
Assay type: cell-based
Method: HEK293-STF cell line was modified from Human embryonic kidney cell line HEK293 transfected with the STF reporter. HEK293-STF3A cell line was further modified from HEK293-STF cell line to express Wnt3A. This cell line was used to identify compounds that regulate either early or late signalling components of the Wnt pathway. L-Wnt3A (ATCC, #CRL-2647) cell line was used for providing Wnt3A conditioned media. The three cell lines were grown in DMEM (Dulbecco's Modified Eagle Medium) with 10% FBS (fetal bovine serum) incubated in 37° C. with 5% CO2. 2×10^4 HEK293-STF3A cells in 75 μl culture media were seeded in each well of white 96 well plates (Greiner #655098) and incubated overnight at 37° C. 25 μl serially diluted compound was added to the cells to give final concentration of 50 μM to 1.5 nM. After 1 day of treatment, 100 μl of Steady-Glo® Luciferase Assay reagent (#E2520, Promega) was added to each well and incubated for 10 minutes at room temperature. Luminescence was measured using Tecan Safire2® plate reader.

`Cc1ccc(-c2ccc(NC(=O)Cn3cnc4c3c(=O)n(C)c(=O)n4C)cc2)cc1` [Compound 30, 2-(1,3-dimethyl-2,6-dioxo-2,3-dihydro-1H-purin-7(6H)-yl)-N-(4′-methylbiphenyl-4-yl)acetamide] was tested. Which IC50 did it give?
The IC50 was less than 100 nM.

With `Cn1c(=O)c2c(ncn2CC(=O)Nc2ccc(-c3ccc(OC(F)(F)F)cc3)cc2)n(C)c1=O` [Compound 31, 2-(1,3-dimethyl-2,6-dioxo-2,3-dihydro-1H-purin-7(6H)-yl)-N-(4′-(trifluoromethoxy)biphenyl-4-yl)acetamide] as the compound, how does the IC50 read?
The IC50 was less than 5000 nM.

For `COc1cccc(-c2ccc(NC(=O)Cn3cnc4c3c(=O)n(C)c(=O)n4C)cc2)c1` [Compound 32, 2-(1,3-dimethyl-2,6-dioxo-2,3-dihydro-1H-purin-7(6H)-yl)-N-(3′-methoxybiphenyl-4-yl)acetamide], which IC50 is on record?
Its IC50 is less than 100 nM.

How did the IC50 turn out when `Cc1nc(-c2ccc(NC(=O)Cn3cnc4c3c(=O)n(C)c(=O)n4C)cc2)cs1` [Compound 33, 2-(1,3-dimethyl-2,6-dioxo-2,3-dihydro-1H-purin-7(6H)-yl)-N-(4-(2-methylthiazol-4-yl)phenyl)acetamide] was run?
Its IC50 is less than 100 nM.

Which IC50 does the source give for `Cn1c(=O)c2c(ncn2CC(=O)Nc2ccc(-c3nccs3)cc2)n(C)c1=O` [Compound 34, 2-(1,3-dimethyl-2,6-dioxo-2,3-dihydro-1H-purin-7(6H)-yl)-N-(4-(thiazol-2-yl)phenyl)acetamide] here?
The IC50 was less than 100 nM.

For `Cn1c(=O)c2c(ncn2CC(=O)Nc2ccc(-c3ccccc3)nc2)n(C)c1=O` [Compound 35, 2-(1,3-dimethyl-2,6-dioxo-2,3-dihydro-1H-purin-7(6H)-yl)-N-(6-phenylpyridin-3-yl)acetamide], which IC50 is on record?
Its IC50 is less than 100 nM.

With `Cn1c(=O)c2c(ncn2CC(=O)Nc2cnc(-c3ccccc3)cn2)n(C)c1=O` [Compound 36, 2-(1,3-dimethyl-2,6-dioxo-2,3-dihydro-1H-purin-7(6H)-yl)-N-(5-phenylpyrazin-2-yl)acetamide] as the compound, how does the IC50 read?
Its IC50 is less than 100 nM.

With `Cn1c(=O)c2c(ncn2CC(=O)Nc2ccc(-c3ccc(F)cc3)cn2)n(C)c1=O` [Compound 37, 2-(1,3-dimethyl-2,6-dioxo-2,3-dihydro-1H-purin-7(6H)-yl)-N-(5-(4-fluorophenyl)pyridin-2-yl)acetamide] as the compound, how does the IC50 read?
The IC50 was less than 100 nM.

With `COC(=O)c1ccc(-c2ccc(NC(=O)Cn3cnc4c3c(=O)n(C)c(=O)n4C)cc2)cc1` [Compound 38, methyl 4′-(2-(1,3-dimethyl-2,6-dioxo-2,3-dihydro-1H-purin-7(6H)-yl)acetamido)biphenyl-4-carboxylate] as the compound, how does the IC50 read?
Its IC50 is less than 100 nM.

With `Cn1c(=O)c2c(ncn2CC(=O)Nc2cc(-c3ccccc3)no2)n(C)c1=O` [Compound 39, 2-(1,3-dimethyl-2,6-dioxo-2,3-dihydro-1H-purin-7(6H)-yl)-N-(3-phenylisoxazol-5-yl)acetamide] as the compound, how does the IC50 read?
Its IC50 is greater than 10000 nM.

Which IC50 does the source give for `Cn1c(=O)c2c(ncn2CC(=O)Nc2ccc(-c3cnco3)cc2)n(C)c1=O` [Compound 40, 2-(1,3-dimethyl-2,6-dioxo-2,3-dihydro-1H-purin-7(6H)-yl)-N-(4-(oxazol-5-yl)phenyl)acetamide] here?
The IC50 was less than 1000 nM.

Which IC50 does the source give for `Cn1c(=O)c2c(ncn2CC(=O)Nc2ccc(-c3nccs3)cn2)n(C)c1=O` [Compound 41, 2-(1,3-dimethyl-2,6-dioxo-2,3-dihydro-1H-purin-7(6H)-yl)-N-(5-(thiazol-2-yl)pyridin-2-yl)acetamide] here?
The IC50 was less than 100 nM.

How did the IC50 turn out when `Cn1c(=O)c2c(ncn2CC(=O)Nc2ccc(N3CCNCC3)cn2)n(C)c1=O` [Compound 42, 2-(1,3-dimethyl-2,6-dioxo-2,3-dihydro-1H-purin-7(6H)-yl)-N-(5-(piperazin-1-yl)pyridin-2-yl)acetamide] was run?
Its IC50 is greater than 10000 nM.

`C[C@H]1CNCCN1c1ccc(NC(=O)Cn2cnc3c2c(=O)n(C)c(=O)n3C)cc1` [Compound 43, (S)-2-(1,3-dimethyl-2,6-dioxo-2,3-dihydro-1H-purin-7(6H)-yl)-N-(4-(2-methylpiperazin-1-yl)phenyl)acetamide] was tested. Which IC50 did it give?
Its IC50 is greater than 10000 nM.

How did the IC50 turn out when `C[C@@H]1CNCCN1c1ccc(NC(=O)Cn2cnc3c2c(=O)n(C)c(=O)n3C)cc1` [Compound 44, (R)-2-(1,3-dimethyl-2,6-dioxo-2,3-dihydro-1H-purin-7(6H)-yl)-N-(4-(2-methylpiperazin-1-yl)phenyl)acetamide] was run?
The IC50 was greater than 10000 nM.
